Results taken from ChEMBL document CHEMBL1201862, “PubChem BioAssay data set” (2004).
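Interpolation was linear, between the two tested concentrations surrounding the appropriate level; five concentrations were tested over 48 hours in 96-well plates. Abbreviation: GI50, concentration required for 50% inhibition of growth.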 The source made the active and inactive calls. No stated cut-off is given here; in the data, active = GI50 up to about 1.1 µM and inactive = higher.

Legend:
Assay in all cases: NCI-60 cell line screen, 48 h
HCT-116 = test system: HCT-116
UACC-257 = test system: UACC-257
A498 = test system: A498
DLD-1 = test system: DLD-1
SK-MEL-28 = test system: SK-MEL-28
K562 = test system: K562
CAKI-1 = test system: CAKI-1
ACHN = test system: ACHN
SR = test system: SR
RXF 393 = test system: RXF 393
M14 = test system: M14
SK-MEL-5 = test system: SK-MEL-5
SK-MEL-2 = test system: SK-MEL-2
HCC 2998 = test system: HCC 2998
MDA-N = test system: MDA-N
MCF7 = test system: MCF7
MDA-MB-231 = test system: MDA-MB-231
MDA-MB-435 = test system: MDA-MB-435
PC-3 = test system: PC-3
NCI/ADR-RES = test system: NCI/ADR-RES

Row | SMILES | GI50 (HCT-116) | GI50 (UACC-257) | GI50 (A498) | GI50 (DLD-1) | GI50 (SK-MEL-28) | GI50 (K562) | GI50 (CAKI-1) | GI50 (ACHN) | GI50 (SR) | GI50 (RXF 393) | GI50 (M14) | GI50 (SK-MEL-5) | GI50 (SK-MEL-2) | GI50 (HCC 2998) | GI50 (MDA-N) | GI50 (MCF7) | GI50 (MDA-MB-231) | GI50 (MDA-MB-435) | GI50 (PC-3) | GI50 (NCI/ADR-RES)
1 | COC(=O)C1=C(c2ccc3c(c2)OCO3)OC(c2ccc3c(c2)OCO3)C1 (centres undefined) | > 100 µM (inactive) | 69.7 µM (inactive) | > 100 µM (inactive) | > 100 µM (inactive) | > 100 µM (inactive) | > 100 µM (inactive) | > 100 µM (inactive) | 80.9 µM (inactive) | 74.5 µM (inactive) | 68.5 µM (inactive) | > 100 µM (inactive) | 68.5 µM (inactive) | > 100 µM (inactive) | > 100 µM (inactive) | – | – | – | – | – | –
2 | COC12CCC(=O)C=C1c1ccccc1N2C(C)=O (centres undefined) | > 100 µM (inactive) | > 100 µM (inactive) | > 100 µM (inactive) | > 100 µM (inactive) | > 100 µM (inactive) | > 100 µM (inactive) | > 100 µM (inactive) | > 100 µM (inactive) | > 100 µM (inactive) | > 100 µM (inactive) | – | – | > 100 µM (inactive) | > 100 µM (inactive) | – | – | – | – | – | –
3 | COc1cc(CC(C(=O)O)C(=O)O)c(OC)cc1CC(C(=O)O)C(=O)O | > 100 µM (inactive) | > 100 µM (inactive) | > 100 µM (inactive) | > 100 µM (inactive) | – | > 100 µM (inactive) | > 100 µM (inactive) | – | > 100 µM (inactive) | > 100 µM (inactive) | > 100 µM (inactive) | > 100 µM (inactive) | – | – | – | – | – | – | – | –
4 | Cc1nn(C)cc1P(=S)(c1ccccc1)c1ccccc1 | 31.8 µM (inactive) | 97.1 µM (inactive) | > 100 µM (inactive) | 51.4 µM (inactive) | > 100 µM (inactive) | 20.6 µM (inactive) | 95.3 µM (inactive) | 61.7 µM (inactive) | 22.5 µM (inactive) | > 100 µM (inactive) | 71.6 µM (inactive) | > 100 µM (inactive) | > 100 µM (inactive) | > 100 µM (inactive) | – | – | – | – | – | –
5 | COc1cc(C2c3cc4c(cc3[C@@H](OCCN(C)C)C3COC(=O)[C@H]23)OCO4)cc(OC)c1O (some centres undefined) | 1.04 µM (active) | 1.68 µM (inactive) | 0.167 µM (active) | 1.03 µM (active) | 0.993 µM (active) | 0.562 µM (active) | 0.14 µM (active) | 0.1 µM (active) | < 0.01 µM (active) | 0.396 µM (active) | 0.384 µM (active) | 0.183 µM (active) | 1.29 µM (inactive) | – | – | – | – | – | – | –
6 | COc1c2c(cc3nc4ccccc4nc13)CCC(C(C)(C)O)C2 (centres undefined) | > 100 µM (inactive) | > 100 µM (inactive) | > 100 µM (inactive) | > 100 µM (inactive) | > 100 µM (inactive) | 73.8 µM (inactive) | > 100 µM (inactive) | > 100 µM (inactive) | 73.6 µM (inactive) | > 100 µM (inactive) | > 100 µM (inactive) | 45.1 µM (inactive) | > 100 µM (inactive) | > 100 µM (inactive) | – | – | – | – | – | –
7 | O=C1C2C3C=CC(C2C(=O)N1CN1CCOCC1)C1C2C(=O)N(CN4CCOCC4)C(=O)C2C31 (centres undefined) | > 44.9 µM (inactive) | > 49.3 µM (inactive) | > 57.4 µM (inactive) | 40.4 µM (inactive) | > 48.6 µM (inactive) | 25.8 µM (inactive) | > 68.2 µM (inactive) | > 53.3 µM (inactive) | 30.8 µM (inactive) | > 49 µM (inactive) | > 42.9 µM (inactive) | > 43.2 µM (inactive) | > 44 µM (inactive) | > 46.5 µM (inactive) | > 100 µM (inactive) | > 100 µM (inactive) | > 100 µM (inactive) | > 100 µM (inactive) | > 100 µM (inactive) | > 100 µM (inactive)
8 | C/C(=N\O)c1sc(-n2nc(-c3ccccc3)cc2-c2ccccc2)nc1C | 12.6 µM (inactive) | 13.6 µM (inactive) | 25.4 µM (inactive) | 11.5 µM (inactive) | 12.9 µM (inactive) | 12.6 µM (inactive) | 13.1 µM (inactive) | 11.9 µM (inactive) | 15.3 µM (inactive) | > 10 µM (inactive) | 13.2 µM (inactive) | 12 µM (inactive) | 28.3 µM (inactive) | 13.6 µM (inactive) | – | – | – | – | – | –
9 | O=C1C(O)=C(CN(CCCl)CCCl)C(=O)c2ccccc21 | 34.4 µM (inactive) | – | > 100 µM (inactive) | 44.3 µM (inactive) | > 100 µM (inactive) | 45.6 µM (inactive) | 39.7 µM (inactive) | 35.2 µM (inactive) | 35.6 µM (inactive) | 28 µM (inactive) | 65.6 µM (inactive) | 52.6 µM (inactive) | > 100 µM (inactive) | 97.5 µM (inactive) | – | – | – | – | – | –
10 | CCCCN(C)CC(C(C)=O)C(c1ccccc1)c1c(O)c2ccccc2oc1=O (centres undefined) | > 100 µM (inactive) | > 100 µM (inactive) | > 100 µM (inactive) | > 100 µM (inactive) | > 100 µM (inactive) | > 100 µM (inactive) | > 100 µM (inactive) | > 100 µM (inactive) | > 100 µM (inactive) | > 100 µM (inactive) | > 100 µM (inactive) | > 100 µM (inactive) | > 100 µM (inactive) | – | – | – | – | – | – | –
11 | C=C[C@]1(C)CCC2=C(CCC3C2(C)CCC[C@@]3(C)COC(C)=O)C1 (some centres undefined) | 17.2 µM (inactive) | 25.2 µM (inactive) | 25.4 µM (inactive) | 18.5 µM (inactive) | 33.1 µM (inactive) | 16.5 µM (inactive) | 20.5 µM (inactive) | 17.5 µM (inactive) | 18.6 µM (inactive) | 22 µM (inactive) | 20.9 µM (inactive) | 16.9 µM (inactive) | 14.6 µM (inactive) | 17.7 µM (inactive) | – | – | – | – | – | –
12 | CC1CC2(CC[C@@H]1O)OCCO2 (some centres undefined) | > 100 µM (inactive) | > 100 µM (inactive) | > 100 µM (inactive) | > 100 µM (inactive) | – | > 100 µM (inactive) | > 100 µM (inactive) | – | – | > 100 µM (inactive) | > 100 µM (inactive) | > 100 µM (inactive) | > 100 µM (inactive) | > 100 µM (inactive) | – | – | – | – | – | –
13 | COc1ccc(/C=c2\sc3n(c2=O)C(N)=C(C#N)C(c2ccc(OC)cc2)C=3c2nc3ccccc3[nH]2)cc1 (centres undefined) | 27.2 µM (inactive) | 28.9 µM (inactive) | 29.6 µM (inactive) | > 10 µM (inactive) | 18.5 µM (inactive) | > 100 µM (inactive) | 21.4 µM (inactive) | 34.4 µM (inactive) | 39.5 µM (inactive) | – | 77.1 µM (inactive) | 16.9 µM (inactive) | 28.6 µM (inactive) | 16.4 µM (inactive) | – | – | – | – | – | –
14 | COc1c(Cl)c2c(c(OC)c1OC)-c1ccc(OC)c(=O)c(Cl)c1C(NC(C)=O)CC2 (centres undefined) | 0.125 µM (active) | 0.14 µM (active) | 0.0593 µM (active) | 0.345 µM (active) | 0.288 µM (active) | 0.139 µM (active) | 0.608 µM (active) | 0.668 µM (active) | 0.444 µM (active) | 0.0382 µM (active) | 0.244 µM (active) | 0.141 µM (active) | 0.284 µM (active) | 0.182 µM (active) | – | – | – | – | – | –
